Data set [1] can be described thus: Lethal toxicity to the aquatic invertebrate Ceriodaphnia dubia (acute 48 hr and chronic 7 day). The following applies: in vivo.
Data set [2] has as its system L1210 murine leukemia cells. The experiment in a line: Cytotoxicity to L1210 murine leukemia cells. The class given is cell-based. The note with it: Mus musculus.

Each structure is given as a SMILES string. Values after ≈ are worked out from the molar mass of the structure shown.

In US5683895A, “9-deazaadenosine and its 5'-α-D-glycopyranoside isolated from the cyanobacterium Anabaena affinis strain VS-1” (priority 1995, dated 1997) one finds LC50 and IC50 data, which are given here for 2 compounds.

As usually defined, the LC50 is the concentration lethal to half of the exposed cells or organisms. In general, IC50 refers to the point on the concentration scale where inhibition reaches its midpoint. Take `Nc1ncnc2c([C@@H]3O[C@H](CO[C@H]4O[C@H](CO)[C@@H](O)[C@H](O)[C@H]4O)[C@@H](O)[C@H]3O)c[nH]c12` [Compound 1, 9-deazaadenosine 5'-α-D-glucopyranoside]: in data set [1], the LC50 at 48 h amounted to 0.5 µg/mL (≈ 1.17 µM) and the LC50 at 168 h is 0.3 µg/mL (≈ 0.7 µM). In data set [2], this compound registered a half-inhibitory concentration (IC50) of 0.01 µg/mL (≈ 0.0233 µM).

In the case of `Nc1ncnc2c([C@@H]3O[C@H](CO)[C@@H](O)[C@H]3O)c[nH]c12` [Compound 2, 9-deazaadenosine], in data set [1], the LC50 at 48 h was determined as 0.3 µg/mL (≈ 1.13 µM) and the LC50 at 168 h was found to be 0.1 µg/mL (≈ 0.376 µM). Moreover, 0.002 µg/mL (≈ 0.00751 µM) corresponded to half-maximal inhibition in data set [2] (IC50).
